# Experimental data: PubChem BioAssay (NCI)
# Values joined by “and” are separate entries in the source; they are usually repeats but may differ in a detail not shown here. Identical values can stand only once.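 48-hour exposure; five concentrations; linearly interpolated endpoints. GI50 = concentration required for 50% inhibition of growth. TGI: concentration producing complete growth inhibition.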
# How the values were obtained:
# Experiment in all cases: DTP human tumour cell line panel, 48 h
# CAKI-1 renal = test system: CAKI-1 renal
# HT29 colon = test system: HT29 colon
# NCI-H460 lung = test system: NCI-H460 lung
# SF-268 CNS = test system: SF-268 CNS
# SN12C renal = test system: SN12C renal
# SNB-19 CNS = test system: SNB-19 CNS
# SW-620 colon = test system: SW-620 colon
# UACC-62 melanoma = test system: UACC-62 melanoma
# UO-31 renal = test system: UO-31 renal
# K-562 leukemia = test system: K-562 leukemia
Structure (SMILES),TGI (CAKI-1 renal) [µM],TGI (HT29 colon),TGI (NCI-H460 lung) [µM],TGI (SF-268 CNS),TGI (SN12C renal) [µM],TGI (SNB-19 CNS),TGI (SW-620 colon),TGI (UACC-62 melanoma) [µM],TGI (UO-31 renal) [µM],GI50 (CAKI-1 renal),GI50 (HT29 colon) [µM],GI50 (NCI-H460 lung) [µM],GI50 (SF-268 CNS),GI50 (SNB-19 CNS),GI50 (SW-620 colon) [µM],GI50 (UO-31 renal),TGI (K-562 leukemia) [µM],GI50 (SN12C renal) [µM],GI50 (UACC-62 melanoma) [µM],GI50 (K-562 leukemia) [µM]
CN1C(OCc2ccccc2)c2c(ccc3c2OCO3)C2C=Cc3cc4c(cc3C21)OCO4 (stereo not drawn),2.2,1.47 µM,3.09,1.58 µM,2.61,3.06 µM,1.35 µM,2.46,2.59,,,,,,,,,,,
CCN(CC)C(=O)CC1=C(C)/C(=C/c2[nH]c(-c3ccc[nH]3)cc2OC)N=C1C,11.4,48.3 µM,14.2,21.3 µM,,> 100 µM,13.4 µM,,2.5,0.383 µM,0.287,0.366,0.633 µM,4.1 µM,0.334,0.554 µM,,,,
CC1(C)C(c2ccccc2)=NN(O)c2ccccc21,> 100,> 100 µM,> 100,> 100 µM,,> 100 µM,> 100 µM,> 100,,,,,,,,,> 100,,,
C=CCC1C(=O)C(C(=O)OC)N2CCc3c([nH]c4ccccc34)C12 (stereo not drawn),> 100,> 100 µM,,> 100 µM,> 100,> 100 µM,> 100 µM,> 100,> 100,,,,,,,,> 100,,,
CCCCN(CCCC)c1ccc(C(=N)c2ccc(N(C)C)cc2)cc1,1.49,1.08 µM,2.32,2.73 µM,2.77,2.37 µM,1.78 µM,1.77,1.28,0.356 µM,0.292,0.788,1.3 µM,0.951 µM,0.438,0.0919 µM,,1.19,0.449,
Cc1cc(N2CCN(C)CC2)nc(NCc2cc(Nc3ccnc4cc(Cl)ccc34)ccc2F)n1,8.61,3.38 µM,,7.76 µM,5.62,> 100 µM,4.01 µM,,3.72,2.68 µM,1.24,,1.99 µM,3.32 µM,1.85,1.76 µM,5.7,2.3,,1.9
Cc1cc(=O)oc2c(CN3CCCCC3)c(O)ccc12,> 100,> 100 µM,> 100,> 100 µM,> 100,> 100 µM,> 100 µM,> 100,,,,,,,,,> 100,,,
O=C(O)C1CCc2nnc(-c3ccccc3)n21 (stereo not drawn),> 100,,> 100,> 100 µM,> 100,> 100 µM,> 100 µM,> 100,> 100,,,,,,,,> 100,,,
CCC1=C(C)/C(=C/c2[nH]c(C(Br)Br)c(CC)c2C)N=C1C(Br)Br,,> 100 µM,> 100,> 100 µM,> 100,> 100 µM,> 100 µM,> 100,> 100,,,,,,,,> 100,,,
COc1ccc2c(c1)[C@]1(C[C@H]1c1ccc3c(/C=C/c4ccc(CN5C[C@@H](C)O[C@@H](C)C5)cc4)n[nH]c3c1)C(=O)N2,,11.6 µM,12.1,> 90.6 µM,> 56.7,> 100 µM,> 61 µM,39.6,> 100,,2.83,1.6,4.63 µM,9.74 µM,2.46,2.84 µM,,5.15,9.79,
[C-]#[O+].[Cl][Sn]([Cl])[Cl].[Cl][Sn]([Cl])[Cl].[Pt].c1ccc([PH+](c2ccccc2)c2ccccc2)cc1.c1ccc([PH+](c2ccccc2)c2ccccc2)cc1,,> 100 µM,> 100,51.1 µM,> 100,> 100 µM,> 100 µM,> 100,> 100,,> 100,33.8,23 µM,34.5 µM,35.1,> 100 µM,> 100,56.6,27.7,34.8
CC(N=C(N)N)C(=O)O (stereo not drawn),> 100,> 100 µM,,> 100 µM,> 100,> 100 µM,> 100 µM,> 100,> 100,,,,,,,,> 100,,,
COc1cc(=O)oc(/C=C/C=O)c1C,79.9,40.7 µM,,28.2 µM,20.7,28.5 µM,37.6 µM,32.8,39.4,,,,,,,,> 100,,,
C/C=C(\C)c1cc(=O)c2c(C)cc3c(c2o1)C(=O)c1c(O)c(C2CC(C)(N(C)C)C(O)C(C)O2)cc(C2CC(N(C)C)C(O)C(C)O2)c1C3=O (stereo not drawn),5.99,1.72 µM and 6.46 µM,,0.738 µM and 4.52 µM,,7.54 µM and 28.8 µM,1.96 µM and 16.7 µM,,,0.273 µM and 2.08 µM,,,0.134 µM and 0.632 µM,0.404 µM and 2.6 µM,,0.531 µM and 3.98 µM,> 53.6,,,
CC1=CCC2(C#N)CCC1C2O (stereo not drawn),> 100,> 100 µM,> 100,> 100 µM,> 100,> 100 µM,,> 100,> 100,,,,,,,,> 100,,,
CC1(C)C(c2ccccc2)C12CCC1(C2=O)C(c2ccccc2)C1(C)C (stereo not drawn),60.3,35 µM,,97.7 µM,73,76.5 µM,46.8 µM,> 100,58.9,,,,,,,,38.4,,,
CN(Cc1cnc(N)nc1N)c1ccc(C(=O)O)cc1,> 100,> 100 µM,> 100,> 100 µM,> 100,> 100 µM,> 100 µM,> 100,> 100,> 100 µM,> 100,> 100,> 100 µM,> 100 µM,> 100,> 100 µM,,> 100,> 100,
O=S1CSCS1 (stereo not drawn),> 100,> 100 µM,,> 100 µM,> 100,> 100 µM,> 100 µM,> 100,> 100,,,,,,,,> 100,,,
